What all share (assay type): cell-based
The target in experiment [1] is T1, human TLR8 (Homo sapiens, UniProt Q9NR97).
T1 construct: host or cells: HEK-Blue cells
T1 sequence (Q9NR97 27-1041): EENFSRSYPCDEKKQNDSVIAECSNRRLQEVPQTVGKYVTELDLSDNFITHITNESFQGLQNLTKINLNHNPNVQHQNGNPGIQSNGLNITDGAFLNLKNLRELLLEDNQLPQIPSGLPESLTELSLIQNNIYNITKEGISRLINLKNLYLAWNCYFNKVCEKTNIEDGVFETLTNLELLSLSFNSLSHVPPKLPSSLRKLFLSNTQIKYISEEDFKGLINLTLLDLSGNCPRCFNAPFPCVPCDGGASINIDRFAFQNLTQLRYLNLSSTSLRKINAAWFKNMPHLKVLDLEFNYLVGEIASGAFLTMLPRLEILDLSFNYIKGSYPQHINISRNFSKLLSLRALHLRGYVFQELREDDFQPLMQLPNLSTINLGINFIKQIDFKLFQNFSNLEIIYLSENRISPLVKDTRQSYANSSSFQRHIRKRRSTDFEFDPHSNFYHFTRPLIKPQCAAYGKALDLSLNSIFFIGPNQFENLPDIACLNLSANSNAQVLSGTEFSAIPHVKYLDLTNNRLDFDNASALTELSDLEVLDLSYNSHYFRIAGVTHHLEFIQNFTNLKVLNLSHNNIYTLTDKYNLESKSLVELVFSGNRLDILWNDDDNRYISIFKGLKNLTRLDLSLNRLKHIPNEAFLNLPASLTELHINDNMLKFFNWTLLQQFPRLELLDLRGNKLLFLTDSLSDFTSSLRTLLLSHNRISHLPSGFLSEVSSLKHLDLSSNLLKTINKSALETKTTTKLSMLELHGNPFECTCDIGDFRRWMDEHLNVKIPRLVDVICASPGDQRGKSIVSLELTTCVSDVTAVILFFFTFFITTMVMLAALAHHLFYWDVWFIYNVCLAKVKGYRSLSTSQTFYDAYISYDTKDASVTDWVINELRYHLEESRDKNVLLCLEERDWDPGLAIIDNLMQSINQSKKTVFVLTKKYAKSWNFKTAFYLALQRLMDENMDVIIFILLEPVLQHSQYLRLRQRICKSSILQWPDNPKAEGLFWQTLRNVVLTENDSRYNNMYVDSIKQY
Kind of experiment: TLR8 inhibition reporter assay (HEK-Blue cells, SEAP reporter, R848 stimulation). Particulars: HEK-Blue cells overexpressing human TLR8, SEAP reporter, R848 15.9 μM. The method, boiled down:
(§1)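 Dose range 0.05 nM–50 μM; 30 min preincubation, RT. Agonists: TLR7 gardiquimod 7.5 μM, TLR8 R848 15.9 μM, TLR9 ODN2006 5 nM. 22 h, 37 °C, 5% CO2. SEAP (IFN-β minimal promoter with NF-κB/AP-1 sites) via colorimetric detection medium; % inhibition vs agonist+DMSO and reference-inhibitor wells.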
(In general: Reporter assays use an easily measured gene product as a stand-in for the process of interest.)

For experiment [2], the target named is T2, human TLR7 (Homo sapiens, UniProt Q9NYK1).
T2 construct: host or cells: HEK-Blue cells
T2 sequence (Q9NYK1 27-1049): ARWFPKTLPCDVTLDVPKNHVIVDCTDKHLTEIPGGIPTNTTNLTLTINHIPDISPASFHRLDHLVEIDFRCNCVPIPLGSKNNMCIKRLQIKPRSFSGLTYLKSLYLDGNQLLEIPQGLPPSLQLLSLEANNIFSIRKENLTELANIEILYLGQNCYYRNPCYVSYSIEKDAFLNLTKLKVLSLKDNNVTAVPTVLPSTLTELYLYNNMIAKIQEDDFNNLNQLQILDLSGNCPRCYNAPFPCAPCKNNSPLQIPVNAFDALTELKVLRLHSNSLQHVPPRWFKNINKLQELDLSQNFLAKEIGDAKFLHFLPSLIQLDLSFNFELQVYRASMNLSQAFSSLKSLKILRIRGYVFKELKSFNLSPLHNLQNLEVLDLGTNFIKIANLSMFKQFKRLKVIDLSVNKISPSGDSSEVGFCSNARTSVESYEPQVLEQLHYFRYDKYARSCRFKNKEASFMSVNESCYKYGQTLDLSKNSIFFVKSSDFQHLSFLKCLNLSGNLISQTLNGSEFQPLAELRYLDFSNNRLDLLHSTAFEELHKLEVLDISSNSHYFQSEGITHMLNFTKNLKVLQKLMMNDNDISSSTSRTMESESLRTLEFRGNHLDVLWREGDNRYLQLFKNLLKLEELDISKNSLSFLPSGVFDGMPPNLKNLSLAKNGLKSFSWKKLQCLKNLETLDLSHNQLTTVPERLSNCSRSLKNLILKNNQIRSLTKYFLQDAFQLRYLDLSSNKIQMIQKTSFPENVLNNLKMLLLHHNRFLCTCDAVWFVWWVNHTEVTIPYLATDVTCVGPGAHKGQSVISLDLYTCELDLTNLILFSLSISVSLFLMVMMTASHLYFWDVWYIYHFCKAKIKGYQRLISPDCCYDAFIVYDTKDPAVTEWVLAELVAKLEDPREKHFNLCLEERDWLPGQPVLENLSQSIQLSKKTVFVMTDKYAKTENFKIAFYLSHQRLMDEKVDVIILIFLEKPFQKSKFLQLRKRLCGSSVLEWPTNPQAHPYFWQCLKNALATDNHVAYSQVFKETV
Kind of experiment: TLR7 inhibition reporter assay (HEK-Blue cells, SEAP reporter, gardiquimod stimulation). Particulars: HEK-Blue cells overexpressing human TLR7, SEAP reporter, gardiquimod 7.5 μM. In a few lines:
as §1

Experiment [3] has as its target T3, human TLR9 (Homo sapiens, UniProt Q9NR96).
T3 construct: host or cells: HEK-Blue cells
T3 sequence (Q9NR96 26-1032): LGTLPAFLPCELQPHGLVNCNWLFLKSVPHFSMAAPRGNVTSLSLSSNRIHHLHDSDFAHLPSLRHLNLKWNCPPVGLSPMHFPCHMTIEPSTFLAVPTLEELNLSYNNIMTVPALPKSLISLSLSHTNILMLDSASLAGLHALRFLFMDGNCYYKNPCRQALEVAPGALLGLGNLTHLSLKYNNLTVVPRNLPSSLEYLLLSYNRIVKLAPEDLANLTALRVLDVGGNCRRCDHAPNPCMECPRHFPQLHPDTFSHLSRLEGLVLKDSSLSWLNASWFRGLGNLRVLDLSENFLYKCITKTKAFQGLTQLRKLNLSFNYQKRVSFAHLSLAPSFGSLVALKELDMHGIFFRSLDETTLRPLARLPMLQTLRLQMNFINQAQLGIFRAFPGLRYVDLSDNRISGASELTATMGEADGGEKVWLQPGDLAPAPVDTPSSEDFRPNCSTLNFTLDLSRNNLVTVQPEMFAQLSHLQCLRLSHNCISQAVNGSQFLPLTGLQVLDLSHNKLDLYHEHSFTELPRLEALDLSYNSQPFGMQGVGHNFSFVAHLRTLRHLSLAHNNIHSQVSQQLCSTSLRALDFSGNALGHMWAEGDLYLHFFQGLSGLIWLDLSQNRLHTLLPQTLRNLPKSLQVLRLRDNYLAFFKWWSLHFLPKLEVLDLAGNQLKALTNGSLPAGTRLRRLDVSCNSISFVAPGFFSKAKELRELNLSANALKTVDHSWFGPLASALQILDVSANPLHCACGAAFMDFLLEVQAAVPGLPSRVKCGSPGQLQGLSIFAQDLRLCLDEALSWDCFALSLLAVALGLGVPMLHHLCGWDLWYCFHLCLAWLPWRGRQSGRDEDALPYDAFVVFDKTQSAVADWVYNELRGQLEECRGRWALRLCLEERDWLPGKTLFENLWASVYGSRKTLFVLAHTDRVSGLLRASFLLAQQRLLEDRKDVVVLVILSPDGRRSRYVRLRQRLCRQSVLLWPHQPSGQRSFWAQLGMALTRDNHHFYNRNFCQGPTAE
The experiment can be described thus: TLR9 inhibition reporter assay (HEK-Blue cells, SEAP reporter, ODN2006 stimulation). Particulars: HEK-Blue cells overexpressing human TLR9, SEAP reporter, ODN2006 5 nM. The method, boiled down: as §1

Usually IC50 stands for the concentration at which inhibition is half-maximal. High values mean weaker potency, low ones greater potency. In the case of `Cc1c(-c2[nH]c3ccc(C4CN(C)C4)cc3c2C(C)C)cn2ncnc2c1C` [Example 547], the concentration for half-maximal inhibition (IC50) was 0.67 nM in experiment [1], 0.37 nM in experiment [2] and 4.55 µM in experiment [3].

With `Cc1c(-c2[nH]c3ccc(C4CN(CC(N)=O)C4)cc3c2C(C)C)cn2ncnc2c1C` [Example 548], the values for the concentration for half-maximal inhibition (IC50) in experiment [1], in experiment [2] and in experiment [3] were 5.1 nM, 4 nM and 8.05 µM, respectively.

As to `Cc1c(-c2[nH]c3ccc(C4CN(CC(C)C)C4)cc3c2C(C)C)cn2cnnc2c1C` [Example 549], the values for the half-inhibitory concentration (IC50) in experiment [1], in experiment [2] and in experiment [3] were 9.3 nM, 6 nM and 2.19 µM, respectively.

As to `COCCN1CC(c2ccc3[nH]c(-c4cn5cnnc5c(C)c4C)c(C(C)C)c3c2)C1` [Example 550], the IC50 in experiment [1] stood at 13 nM; in experiment [2], 17 nM; in experiment [3] it was 13.6 µM.

Take `Cc1c(-c2[nH]c3ccc(C4CN(Cc5c[nH]nn5)C4)cc3c2C(C)C)cn2ncnc2c1C` [Example 551]: the figures for the IC50 in experiment [1], in experiment [2] and in experiment [3] were 3.2 nM, 2 nM and 3.35 µM, respectively.

With `CNC(=O)CN1CC(c2ccc3[nH]c(-c4cn5ncnc5c(C)c4C)c(C(C)C)c3c2)C1` [Example 552], the IC50 is 3.4 nM in experiment [1], 4 nM in experiment [2] and 5.57 µM in experiment [3].

For the compound `Cc1c(-c2[nH]c3ccc(C4CN(CC#N)C4)cc3c2C(C)C)cn2ncnc2c1C` [Example 553], the IC50 in experiment [1] amounted to 7.2 nM; in experiment [2], 4 nM; in experiment [3] it was 32.3 µM.

For the compound `Cc1c(-c2[nH]c3ccc(C4CN(CCCC(F)(F)F)C4)cc3c2C(C)C)cn2cnnc2c1C` [Example 554], the 50% inhibitory concentration (IC50) in experiment [1] was found to be 15 nM; in experiment [2] it was 18 nM; in experiment [3], 5.2 µM.

For `Cc1c(-c2[nH]c3ccc(C4CN(C(C)C)C4)cc3c2C(C)C)cn2ncnc2c1C` [Example 555], the IC50 in experiment [1] was determined as 10 nM; in experiment [2], 9 nM; in experiment [3], 7.73 µM.

For `Cc1c(-c2[nH]c3ccc(C4CN(CC(=O)N(C)C)C4)cc3c2C(C)C)cn2ncnc2c1C` [Example 556], the results for the IC50 in experiment [1], in experiment [2] and in experiment [3] were 4.9 nM, 6 nM and 5.12 µM, respectively.

On to `Cc1c(-c2[nH]c3ccc(C4CN(CC(C)(C)O)C4)cc3c2C(C)C)cn2ncnc2c1C` [Example 557], for which the results for the half-inhibitory concentration (IC50) in experiment [1], in experiment [2] and in experiment [3] were 3.6 nM, 9 nM and 6.75 µM, respectively.

Regarding `Cc1c(-c2[nH]c3ccc(C4CC5CN(CC#N)CC5C4)cc3c2C(C)C)cn2cnnc2c1C` (stereo not drawn) [Example 558], the IC50 was 117 nM in experiment [1], 6 nM in experiment [2] and 3.72 µM in experiment [3].

Regarding `Cc1c(-c2[nH]c3ccc(C4CC5CN(C)CC5C4)cc3c2C(C)C)cn2cnnc2c1C` (stereo not drawn) [Example 559], the IC50 in experiment [1] was 9.2 nM; in experiment [2], 2 nM; in experiment [3], 2.12 µM.

As to `Cc1c(-c2[nH]c3ccc(C4CC5CN(C(C)C)CC5C4)cc3c2C(C)C)cn2cnnc2c1C` (stereo not drawn) [Example 560], the IC50 came out at 27 nM in experiment [1], 1 nM in experiment [2] and 2.33 µM in experiment [3].

Regarding `Cc1c(-c2[nH]c3ccc(C4CC5CN(CC6(C)COC6)CC5C4)cc3c2C(C)C)cn2cnnc2c1C` (stereo not drawn) [Example 561], the IC50 in experiment [1] is 25 nM; in experiment [2] it was 5 nM; in experiment [3], 4.68 µM.

In the case of `Cc1c(-c2[nH]c3ccc(C4CC5CN(C6CCOC6)CC5C4)cc3c2C(C)C)cn2cnnc2c1C` (stereo not drawn) [Example 562], the 50% inhibitory concentration (IC50) is 28 nM in experiment [1], 4 nM in experiment [2] and 3.71 µM in experiment [3].

In the case of `Cc1c(-c2[nH]c3ccc(C4CC5CN(C6CCOCC6)CC5C4)cc3c2C(C)C)cn2cnnc2c1C` (stereo not drawn) [Example 563], the 50% inhibitory concentration (IC50) in experiment [1] was 3130 nM; in experiment [2], 1270 nM; in experiment [3] it was 38.2 µM.

As for `Cc1c(-c2[nH]c3ccc(C4CN(C(=O)CN(C)C)C4)cc3c2C(C)C)cn2ncnc2c1C` [Example 564], the IC50 came out at 7 nM in experiment [1], 3 nM in experiment [2] and 7.31 µM in experiment [3].

Turning to `Cc1c(-c2[nH]c3ccc(C4CC(NCC(=O)N(C)C)C4)cc3c2C(C)C)cn2ncnc2c1C` (stereo not drawn) [Example 566], the IC50 was 0.6 nM in experiment [1], 1 nM in experiment [2] and 4.45 µM in experiment [3].

With `Cc1c(-c2[nH]c3ccc(C4CC(NCC#N)C4)cc3c2C(C)C)cn2ncnc2c1C` (stereo not drawn) [Example 567], the IC50 in experiment [1] was 1.1 nM; in experiment [2] it was 2 nM; in experiment [3], 26.7 µM.

In the case of `COc1cc(-c2[nH]c3ccc(C4CC(N)C4)cc3c2C(C)C)cn2ncnc12` (stereo not drawn) [Example 568], the concentration for half-maximal inhibition (IC50) in experiment [1] is 0.76 nM; in experiment [2], 0.53 nM; in experiment [3], 0.98 µM.

On to `COc1cc(-c2[nH]c3ccc(C4CC(NC(=O)CN(C)C)C4)cc3c2C(C)C)cn2ncnc12` (stereo not drawn) [Example 569], for which the half-inhibitory concentration (IC50) is 0.62 nM in experiment [1], 0.32 nM in experiment [2] and 4.55 µM in experiment [3].
